We go through seven compounds from patent publication US4451284A, “Derivatives of 2-nitro-4- or -5-pyridyloxyphenylphosphonic acid, the preparation thereof, the use thereof as herbicides and/or plant growth regulators” (Ciba-Geigy Corporation, priority 1981, dated 1984).

Where two headings read alike, the source gives them in different places.

What all share (format): in vivo
Test [1] relates to Solanum. The test can be described thus: Postemergence herbicidal action (contact herbicide), compounds of formula I, Solanum. Also on record: key: 1: plants have not germinated or have completely died off; 2-3: very pronounced action; 4-6: medium action; 7-8: slight action; 9: no action (as untreated controls). Particulars: 4 kg a.i./ha, 15 days. On the procedure:
(§1) The weeds to be tested are sprayed postemergence (in the 4- to 6-leaf stage) with an aqueous dispersion prepared from compounds of formula I formulated as (a) a 10% or (b) a 25% wettable powder or (c) a 25% emulsifiable concentrate, at a rate of application of 4 kg a.i./ha. The plants are kept at 24°-26° C. and 45-60% relative humidity. The test is evaluated 15 days later in accordance with the same rating as used in the preemergence test (Example 19).

The test system of test [2] is Sinapis. Description: Postemergence herbicidal action (contact herbicide), compounds of formula I, Sinapis. To be noted: 4 kg a.i./ha, 15 days. Further details: key: 1: plants have not germinated or have completely died off; 2-3: very pronounced action; 4-6: medium action; 7-8: slight action; 9: no action (as untreated controls). On the procedure:
as §1

The test system of a further test is weeds. The test can be described thus: Postemergence herbicidal action (contact herbicide), compounds of formula I, overall. Particulars: 4 kg a.i./ha, 15 days later. The method, then:
as §1

In test [3] the test system is Setaria. Description: Postemergence herbicidal action (contact herbicide), compounds of formula I, Setaria. To be noted: 4 kg a.i./ha, 15 days. On the procedure: as §1
A further test deals with Erysiphe graminis. Description: Action against Erysiphe graminis on barley. To be noted: 0.02% spray mixture, 10 days. The method, then: Barley plants about 8 cm in height are sprayed with a spray mixture (0.02% of compound of formula I) prepared from a 25% emulsifiable concentrate. After 3-4 hours the plants are dusted with conidia of Erysiphe graminis. The infected barley plants are then stood in a greenhouse at about 22° C. Evaluation of fungus attack is made 10 days later.

A further test concerns Stellaria. The test can be described thus: Preemergence herbicidal action (inhibition of germination), Stellaria. Further details: key to preemergence herbicidal action rating: 1: plants have not germinated or have completely died off; 2-3: very pronounced action; 4-6: medium action; 7-8: slight action; 9: no action (as untreated controls). To be noted: 4 kg a.i./ha, after 3 weeks. On the procedure:
(§2) In a greenhouse, immediately after sowing seeds of test plants in seed dishes, the surface of the soil is treated with an aqueous dispersion prepared from a 10% wettable powder formulation of test compounds of formula I. Concentrations of 4 kg of active ingredient per hectare are used. The seed dishes are kept in the greenhouse at 22°-25° C. and 50-70% relative humidity, and the test is evaluated after 3 weeks in accordance with the following rating: […]

The test system of test [4] is Sinapis. Description: Preemergence herbicidal action (inhibition of germination), Sinapis. To be noted: 4 kg a.i./ha, after 3 weeks. On the procedure: as §2
In test [5] the test system is Setaria. The test can be described thus: Preemergence herbicidal action (inhibition of germination), Setaria. Particulars: 4 kg a.i./ha, after 3 weeks. Also on record: key to preemergence herbicidal action rating: 1: plants have not germinated or have completely died off; 2-3: very pronounced action; 4-6: medium action; 7-8: slight action; 9: no action (as untreated controls). On the procedure: as §2

Test [6] deals with Xanthomonas oryzae. To be noted: for bactericidal properties in words: residual-protective action.
Another test concerns Phaseolus. Description: Postemergence herbicidal action (contact herbicide), compounds of formula II, Phaseolus. Particulars: 4 kg a.i./ha, 15 days; for postemergence herbicidal action rating: 25% wettable powder; for herbicidal action in words: postemergence. Further details: key to postemergence herbicidal action rating: 1: plants completely withered; 2-3: very pronounced action; 4-6: medium action; 7-8: insignificant action; 9: no action (as untreated controls). The method, then: (§3) The plants for testing are sprayed postemergence (in the 4- to 6-leaf stage) at a concentration of 4 kg a.i./ha with an aqueous dispersion prepared from a compound of formula II formulated as a 25% wettable powder. The plants are then kept at 24°-26° C. and 45-60% relative humidity. The test is evaluated 15 days later according to the following rating: […]

Test [7] deals with Solanum. The test can be described thus: Postemergence herbicidal action (contact herbicide), compounds of formula II, Solanum. Also on record: key to postemergence herbicidal action rating: 1: plants completely withered; 2-3: very pronounced action; 4-6: medium action; 7-8: insignificant action; 9: no action (as untreated controls). To be noted: 4 kg a.i./ha, 15 days; for postemergence herbicidal action rating: 25% wettable powder; for herbicidal action in words: postemergence. On the procedure: as §3

Test [8] relates to Xanthomonas oryzae. To be noted: for bactericidal activity: based on the volume of the soil.
The mark [9] stands for this setting: formulation (c) 25% emulsifiable concentrate.
[10] abbreviates: formulation (a) 10% wettable powder.
[11] abbreviates: formulation (b) 25% wettable powder.

As to `CCOP(=O)(OCC)c1cc(Oc2ncc(C(F)(F)F)cc2Cl)ccc1[N+](=O)[O-]` [Compound 7, Diethyl 2-nitro-5-(3'-chloro-5'-trifluoromethyl-2'-pyridyloxy)phenylphosphonate], the results for the “postemergence herbicidal action rating” value in the test on Solanum [1] (setting [9]), in the test with Sinapis [2] (setting [9]) and with Setaria [3] (setting [9]) were 1, 2 and 3, respectively. Further, the “postemergence effectiveness in words” value with weeds was “very effective”.
With `CCOP(=O)(OCC)c1cc(Oc2ncc(Cl)cc2Cl)ccc1[N+](=O)[O-]` [Compound 9, Diethyl 2-nitro-5-(3',5'-dichloro-2'-pyridyloxy)phenylphosphonate], the “postemergence herbicidal action rating” value in the test on Solanum [1] (setting [9]) stood at 1; with Sinapis [2] (setting [9]), 2; with Setaria [3] (setting [9]), 2. Also, the “postemergence effectiveness in words” value in the test with weeds is listed as “very effective”.
Turning to `COP(=O)(OC)c1cc(Oc2ccc(C(F)(F)F)cn2)ccc1[N+](=O)[O-]` [Compound 1], the entries for the “postemergence herbicidal action rating” value in the test on Solanum [1] (setting [9]), in the test on Sinapis [2] (setting [9]) and in the test with Setaria [3] (setting [9]) were 4, 3 and 4, respectively. Further, the “postemergence effectiveness in words” value in the test with weeds is listed as “very effective”. Also, the “reduction of fungus attack compared with untreated controls” value with Erysiphe graminis (25% emulsifiable concentrate, untreated = 100% attack) is 80-95%. Also, in the test on Erysiphe graminis, the effectiveness in words result is “particularly effective”.
On to `COP(=O)(OC)c1cc(Oc2ncc(C(F)(F)F)cc2Cl)ccc1[N+](=O)[O-]` [Compound 6, Dimethyl 2-nitro-5-(3'-chloro-5'-trifluoromethyl-2'-pyridyloxy)phenylphosphonate], for which the “preemergence herbicidal action rating” value is reported as 1 in the test on Stellaria (10% wettable powder), 2 in the test on Sinapis [4] (10% wettable powder) and 1 with Setaria [5] (10% wettable powder). Further, the “preemergence effectiveness in words” value in the test on Stellaria, in the test on Sinapis [4] and with Setaria [5] was “very effective” in each case. Further, the “postemergence herbicidal action rating” value with Solanum [1] (setting [10]) is given as 1; in the test on Sinapis [2] (setting [10]), 1; with Setaria [3] (setting [10]), 3. Also, the “postemergence effectiveness in words” value in the test with weeds is recorded as “very effective”. Also, the action result in the test on Xanthomonas oryzae [6] (concentration of 0.02%) is listed as “over 95%”. In addition, the “bactericidal properties in words” value in the test with Xanthomonas oryzae [6] is listed as “pronounced bactericidal properties”.
For `O=[N+]([O-])c1ccc(Oc2ncc(C(F)(F)F)cc2Cl)cc1[N+](=O)[O-]` [II-2, 1,2-dinitro-4-(3'-chloro-5'-trifluoromethyl-2'-pyridyloxy)benzene], in the test on Phaseolus, the “postemergence herbicidal action rating” value is recorded as 1 and the “herbicidal action in words” value is given as “excellent herbicidal action”. In the test on Solanum [7], the “postemergence herbicidal action rating” value is recorded as 1 and the “herbicidal action in words” value is recorded as “excellent herbicidal action”.
For the compound `COP(=O)(OC)c1cc(Oc2ncc(Cl)cc2Cl)ccc1[N+](=O)[O-]` [Compound 4, Dimethyl 2-nitro-5-(3',5'-dichloro-2'-pyridyloxy)phenylphosphonate], the “postemergence herbicidal action rating” value in the test on Solanum [1] (setting [11]) amounted to 2; in the test with Sinapis [2] (setting [11]), 3; with Setaria [3] (setting [11]) it was 3. The bactericidal activity in the test on Xanthomonas oryzae [8] (concentration of 0.0006%) is 50-80%; with Xanthomonas oryzae [8] (concentration of 0.006%), “over 95%”. Also, the “bactericidal activity in words” value with Xanthomonas oryzae [8] (systemic action) is “pronounced bactericidal activity”. For the same compound, the “postemergence effectiveness in words” value in the test with weeds is reported as “very effective”. Also, the action in the test on Xanthomonas oryzae [6] (concentration of 0.0006%) is 80-95%; in the test on Xanthomonas oryzae [6] (concentration of 0.006%) it was “over 95%”. Moreover, the “bactericidal properties in words” value in the test with Xanthomonas oryzae [6] is recorded as “pronounced bactericidal properties”.
For `O=[N+]([O-])c1ccc(Oc2ccc(C(F)(F)F)cn2)cc1[N+](=O)[O-]` [II-3, 1,2-dinitro-4-(5'-trifluoromethyl-2'-pyridyloxy)benzene], the results for the “postemergence herbicidal action rating” value with Phaseolus and with Solanum [7] were 1 and 3, respectively. Further, the “herbicidal action in words” value in the test on Phaseolus and in the test on Solanum [7] was “excellent herbicidal action” each time.
